Reference: ChEMBL document CHEMBL4507275, “Data for DCP probe BI-2545” (2021)

Experiments:
[1] = target: 5-hydroxytryptamine receptor 2C (Homo sapiens) (UniProt P28335); details: Compound concentration 10.0 uM
[2] = target: Ephrin type-A receptor 2 (Homo sapiens) (UniProt P29317); details: Compound concentration 1000.0 nM
[3] = target: Cyclin-dependent kinase-like 3 (Homo sapiens) (UniProt Q8IVW4); details: Compound concentration 1000.0 nM
[4] = target: Casein kinase I isoform alpha (Homo sapiens) (UniProt P48729); details: Compound concentration 1000.0 nM
[5] = target: Dual specificity protein kinase CLK2 (Homo sapiens) (UniProt P49760); details: Compound concentration 1000.0 nM
[6] = target: Platelet-derived growth factor receptor beta (Homo sapiens) (UniProt P09619); details: Compound concentration 1000.0 nM
[7] = target: Calcium/calmodulin-dependent protein kinase type 1B (Homo sapiens) (UniProt Q6P2M8); details: Compound concentration 1000.0 nM
[8] = target: TRAF2 and NCK-interacting protein kinase (Homo sapiens) (UniProt Q9UKE5); details: Compound concentration 1000.0 nM
TRAF2 and NCK-interacting protein kinase (Homo sapiens), sequence (Q9UKE5 whole entry, looked up): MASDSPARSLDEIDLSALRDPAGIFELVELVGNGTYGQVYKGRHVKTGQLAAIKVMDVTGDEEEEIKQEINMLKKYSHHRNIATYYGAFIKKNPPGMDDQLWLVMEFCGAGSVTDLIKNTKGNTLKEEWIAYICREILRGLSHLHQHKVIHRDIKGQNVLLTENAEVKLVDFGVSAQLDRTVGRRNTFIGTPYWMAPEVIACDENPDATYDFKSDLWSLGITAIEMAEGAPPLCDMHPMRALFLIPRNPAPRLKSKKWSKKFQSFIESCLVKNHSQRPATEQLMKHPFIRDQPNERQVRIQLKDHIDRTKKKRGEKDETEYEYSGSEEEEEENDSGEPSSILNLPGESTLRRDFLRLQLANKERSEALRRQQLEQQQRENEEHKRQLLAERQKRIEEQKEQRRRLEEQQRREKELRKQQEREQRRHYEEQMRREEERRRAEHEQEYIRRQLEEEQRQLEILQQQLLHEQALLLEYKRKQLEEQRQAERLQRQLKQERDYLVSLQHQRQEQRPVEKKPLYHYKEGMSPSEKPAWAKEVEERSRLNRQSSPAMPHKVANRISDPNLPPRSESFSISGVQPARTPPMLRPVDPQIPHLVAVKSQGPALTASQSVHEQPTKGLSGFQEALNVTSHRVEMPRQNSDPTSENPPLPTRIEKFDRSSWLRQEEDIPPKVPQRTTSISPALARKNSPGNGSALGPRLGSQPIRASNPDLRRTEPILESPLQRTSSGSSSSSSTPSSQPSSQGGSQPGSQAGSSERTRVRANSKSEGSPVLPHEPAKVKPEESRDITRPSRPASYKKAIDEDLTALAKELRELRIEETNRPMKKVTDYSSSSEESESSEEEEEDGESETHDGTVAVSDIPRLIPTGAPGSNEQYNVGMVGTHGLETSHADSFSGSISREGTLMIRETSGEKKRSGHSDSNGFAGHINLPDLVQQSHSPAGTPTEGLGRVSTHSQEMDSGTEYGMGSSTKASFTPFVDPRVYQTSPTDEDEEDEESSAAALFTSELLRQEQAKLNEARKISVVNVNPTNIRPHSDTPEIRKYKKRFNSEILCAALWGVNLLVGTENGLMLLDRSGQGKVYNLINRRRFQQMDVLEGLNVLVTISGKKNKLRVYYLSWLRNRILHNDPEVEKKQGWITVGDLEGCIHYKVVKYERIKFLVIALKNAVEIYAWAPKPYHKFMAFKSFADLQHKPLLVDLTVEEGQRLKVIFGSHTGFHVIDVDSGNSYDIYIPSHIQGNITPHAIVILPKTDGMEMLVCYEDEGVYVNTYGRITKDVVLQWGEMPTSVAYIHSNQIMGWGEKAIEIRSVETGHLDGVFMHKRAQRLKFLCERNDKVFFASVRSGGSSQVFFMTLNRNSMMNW

[9] = target: Tyrosine-protein kinase ITK/TSK (Homo sapiens) (UniProt Q08881); details: Compound concentration 1000.0 nM
[10] = target: Cyclin-dependent kinase-like 1 (Homo sapiens) (UniProt Q00532); details: Compound concentration 1000.0 nM
[11] = target: Casein kinase I isoform gamma-2 (Homo sapiens) (UniProt P78368); details: Compound concentration 1000.0 nM
[12] = target: 5-hydroxytryptamine receptor 5A (Homo sapiens) (UniProt P47898); details: Compound concentration 10.0 uM
[13] = target: Mitogen-activated protein kinase kinase kinase kinase 5 (Homo sapiens) (UniProt Q9Y4K4); details: Compound concentration 1000.0 nM
Mitogen-activated protein kinase kinase kinase kinase 5 (Homo sapiens), sequence (Q9Y4K4 whole entry, looked up): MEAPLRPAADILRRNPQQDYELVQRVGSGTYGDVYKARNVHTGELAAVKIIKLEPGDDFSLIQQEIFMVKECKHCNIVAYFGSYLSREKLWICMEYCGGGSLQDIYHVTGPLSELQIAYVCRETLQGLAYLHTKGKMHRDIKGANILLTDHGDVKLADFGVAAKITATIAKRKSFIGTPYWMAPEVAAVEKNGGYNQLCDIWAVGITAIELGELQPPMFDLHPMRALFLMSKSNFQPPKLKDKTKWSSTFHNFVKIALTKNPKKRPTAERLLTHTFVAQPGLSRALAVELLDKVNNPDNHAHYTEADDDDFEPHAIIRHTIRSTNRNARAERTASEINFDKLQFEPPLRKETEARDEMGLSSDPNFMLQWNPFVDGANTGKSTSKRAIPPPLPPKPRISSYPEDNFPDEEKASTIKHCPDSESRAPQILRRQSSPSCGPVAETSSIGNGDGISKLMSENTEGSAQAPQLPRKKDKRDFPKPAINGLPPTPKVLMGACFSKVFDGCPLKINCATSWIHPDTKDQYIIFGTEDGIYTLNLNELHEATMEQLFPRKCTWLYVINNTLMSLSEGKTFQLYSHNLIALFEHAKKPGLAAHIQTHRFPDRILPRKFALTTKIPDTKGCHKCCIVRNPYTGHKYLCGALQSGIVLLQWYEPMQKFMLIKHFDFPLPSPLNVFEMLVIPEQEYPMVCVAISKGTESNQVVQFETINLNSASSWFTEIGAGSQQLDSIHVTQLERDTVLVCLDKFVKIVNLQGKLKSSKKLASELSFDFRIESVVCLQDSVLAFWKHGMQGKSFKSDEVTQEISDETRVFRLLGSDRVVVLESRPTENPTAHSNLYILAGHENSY

[14] = system: Tyrosine-protein kinase ABL1 (Homo sapiens), P00519 [T315I]; details: Compound concentration 1000.0 nM
[15] = target: Mitogen-activated protein kinase 15 (Homo sapiens) (UniProt Q8TD08); details: Compound concentration 1000.0 nM
[16] = target: Serine/threonine-protein kinase Nek1 (Homo sapiens) (UniProt Q96PY6); details: Compound concentration 1000.0 nM
[17] = target: Myotonin-protein kinase (Homo sapiens) (UniProt Q09013); details: Compound concentration 1000.0 nM
[18] = target: Ribosomal protein S6 kinase alpha-5 (Homo sapiens) (UniProt O75582); details: Compound concentration 1000.0 nM
[19] = system: Phosphatidylinositol 4,5-bisphosphate 3-kinase catalytic subunit alpha isoform (Homo sapiens), P42336 [E545K]; details: Compound concentration 1000.0 nM
[20] = target: Histamine H2 receptor (Homo sapiens) (UniProt P25021); details: Compound concentration 10.0 uM
Histamine H2 receptor (Homo sapiens), sequence (P25021 whole entry): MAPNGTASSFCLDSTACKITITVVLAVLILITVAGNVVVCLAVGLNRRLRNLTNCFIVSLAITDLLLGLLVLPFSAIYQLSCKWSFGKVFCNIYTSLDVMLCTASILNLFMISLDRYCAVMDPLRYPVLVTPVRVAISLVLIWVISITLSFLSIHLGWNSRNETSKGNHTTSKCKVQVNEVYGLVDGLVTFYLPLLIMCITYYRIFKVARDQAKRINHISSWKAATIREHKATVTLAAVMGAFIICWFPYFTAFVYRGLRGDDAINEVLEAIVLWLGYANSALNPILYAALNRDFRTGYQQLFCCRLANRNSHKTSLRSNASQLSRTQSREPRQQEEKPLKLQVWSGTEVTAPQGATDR

[21] = target: Mitogen-activated protein kinase 6 (Homo sapiens) (UniProt Q16659); details: Compound concentration 1000.0 nM
[22] = target: Calcium/calmodulin-dependent protein kinase type II subunit delta (Homo sapiens) (UniProt Q13557); details: Compound concentration 1000.0 nM
[23] = target: Alpha-2C adrenergic receptor (Homo sapiens) (UniProt P18825); details: Compound concentration 10.0 uM
[24] = target: Receptor tyrosine-protein kinase erbB-4 (Homo sapiens) (UniProt Q15303); details: Compound concentration 1000.0 nM
[25] = target: Epidermal growth factor receptor (Homo sapiens) (UniProt P00533); details: Compound concentration 1000.0 nM
[26] = target: Dual specificity tyrosine-phosphorylation-regulated kinase 1B (Homo sapiens) (UniProt Q9Y463); details: Compound concentration 1000.0 nM
Dual specificity tyrosine-phosphorylation-regulated kinase 1B (Homo sapiens), sequence (Q9Y463 whole entry, looked up): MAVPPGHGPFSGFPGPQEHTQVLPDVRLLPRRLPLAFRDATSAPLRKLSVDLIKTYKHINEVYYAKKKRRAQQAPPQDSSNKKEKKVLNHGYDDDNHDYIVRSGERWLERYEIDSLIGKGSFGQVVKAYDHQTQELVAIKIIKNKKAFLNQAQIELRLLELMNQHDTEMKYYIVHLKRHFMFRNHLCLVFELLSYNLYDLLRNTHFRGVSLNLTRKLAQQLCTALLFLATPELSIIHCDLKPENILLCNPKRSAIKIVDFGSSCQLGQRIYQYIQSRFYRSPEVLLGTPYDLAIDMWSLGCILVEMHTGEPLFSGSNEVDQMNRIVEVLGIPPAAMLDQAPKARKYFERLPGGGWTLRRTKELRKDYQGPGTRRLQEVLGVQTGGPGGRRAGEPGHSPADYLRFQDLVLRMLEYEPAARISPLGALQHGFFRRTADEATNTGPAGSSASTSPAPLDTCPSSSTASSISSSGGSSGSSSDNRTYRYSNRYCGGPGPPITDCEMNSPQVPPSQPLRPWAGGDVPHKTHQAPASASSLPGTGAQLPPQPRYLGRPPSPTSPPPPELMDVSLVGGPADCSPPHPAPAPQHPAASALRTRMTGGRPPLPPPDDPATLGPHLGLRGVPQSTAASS

[27] = system: Tyrosine-protein kinase ABL1 (Homo sapiens), P00519 [Q252H]; details: Compound concentration 1000.0 nM
[28] = system: Serine/threonine-protein kinase B-raf (Homo sapiens), P15056 [V600E]; details: Compound concentration 1000.0 nM
[29] = target: Sigma intracellular receptor 2 (Homo sapiens) (UniProt Q5BJF2); details: Compound concentration 10.0 uM
[30] = target: Rhodopsin kinase GRK7 (Homo sapiens) (UniProt Q8WTQ7); details: Compound concentration 1000.0 nM
[31] = target: Interleukin-1 receptor-associated kinase 1 (Homo sapiens) (UniProt P51617); details: Compound concentration 1000.0 nM
[32] = system: Receptor-type tyrosine-protein kinase FLT3 (Homo sapiens), P36888 [N841I]; details: Compound concentration 1000.0 nM
[33] = target: Cyclin-dependent kinase 4 (Homo sapiens) (UniProt P11802); details: Compound concentration 1000.0 nM
[34] = target: Death-associated protein kinase 2 (Homo sapiens) (UniProt Q9UIK4); details: Compound concentration 1000.0 nM
[35] = target: Calcium/calmodulin-dependent protein kinase type 1G (Homo sapiens) (UniProt Q96NX5); details: Compound concentration 1000.0 nM
[36] = target: Tyrosine-protein kinase FRK (Homo sapiens) (UniProt P42685); details: Compound concentration 1000.0 nM
[37] = target: cAMP-dependent protein kinase catalytic subunit PRKX (Homo sapiens) (UniProt P51817); details: Compound concentration 1000.0 nM
[38] = target: Glycogen synthase kinase-3 alpha (Homo sapiens) (UniProt P49840); details: Compound concentration 1000.0 nM
Glycogen synthase kinase-3 alpha (Homo sapiens), sequence (P49840 2-483 limits assumed): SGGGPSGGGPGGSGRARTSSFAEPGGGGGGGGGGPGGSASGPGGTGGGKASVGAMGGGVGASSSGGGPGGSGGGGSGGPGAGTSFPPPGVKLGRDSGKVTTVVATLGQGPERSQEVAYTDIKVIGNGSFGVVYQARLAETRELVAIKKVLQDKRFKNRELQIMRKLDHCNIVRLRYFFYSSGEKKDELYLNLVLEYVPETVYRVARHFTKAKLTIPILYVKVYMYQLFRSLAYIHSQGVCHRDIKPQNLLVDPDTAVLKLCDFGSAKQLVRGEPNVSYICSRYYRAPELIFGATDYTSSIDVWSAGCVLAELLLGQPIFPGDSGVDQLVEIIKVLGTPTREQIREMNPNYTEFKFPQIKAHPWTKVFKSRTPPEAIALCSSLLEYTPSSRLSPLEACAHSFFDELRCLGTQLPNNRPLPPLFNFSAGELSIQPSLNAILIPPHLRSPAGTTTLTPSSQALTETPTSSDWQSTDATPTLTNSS

[39] = target: Megakaryocyte-associated tyrosine-protein kinase (Homo sapiens) (UniProt P42679); details: Compound concentration 1000.0 nM
Megakaryocyte-associated tyrosine-protein kinase (Homo sapiens), sequence (P42679 whole entry): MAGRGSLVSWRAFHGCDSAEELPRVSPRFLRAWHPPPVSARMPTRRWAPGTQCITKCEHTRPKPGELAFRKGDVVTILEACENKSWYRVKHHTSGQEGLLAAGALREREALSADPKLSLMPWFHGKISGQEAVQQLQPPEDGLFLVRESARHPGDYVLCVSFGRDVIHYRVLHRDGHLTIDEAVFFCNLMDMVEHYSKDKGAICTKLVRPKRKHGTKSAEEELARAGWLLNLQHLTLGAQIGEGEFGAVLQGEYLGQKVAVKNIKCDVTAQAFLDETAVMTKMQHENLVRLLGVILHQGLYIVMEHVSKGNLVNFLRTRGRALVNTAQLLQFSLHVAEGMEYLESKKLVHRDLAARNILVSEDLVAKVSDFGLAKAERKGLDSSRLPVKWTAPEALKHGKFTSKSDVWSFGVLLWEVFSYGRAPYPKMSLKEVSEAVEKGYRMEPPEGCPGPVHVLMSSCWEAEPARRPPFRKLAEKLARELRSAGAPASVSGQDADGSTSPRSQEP

[40] = target: Serine/threonine-protein kinase MARK2 (Homo sapiens) (UniProt Q7KZI7); details: Compound concentration 1000.0 nM
Serine/threonine-protein kinase MARK2 (Homo sapiens), sequence (Q7KZI7 whole entry): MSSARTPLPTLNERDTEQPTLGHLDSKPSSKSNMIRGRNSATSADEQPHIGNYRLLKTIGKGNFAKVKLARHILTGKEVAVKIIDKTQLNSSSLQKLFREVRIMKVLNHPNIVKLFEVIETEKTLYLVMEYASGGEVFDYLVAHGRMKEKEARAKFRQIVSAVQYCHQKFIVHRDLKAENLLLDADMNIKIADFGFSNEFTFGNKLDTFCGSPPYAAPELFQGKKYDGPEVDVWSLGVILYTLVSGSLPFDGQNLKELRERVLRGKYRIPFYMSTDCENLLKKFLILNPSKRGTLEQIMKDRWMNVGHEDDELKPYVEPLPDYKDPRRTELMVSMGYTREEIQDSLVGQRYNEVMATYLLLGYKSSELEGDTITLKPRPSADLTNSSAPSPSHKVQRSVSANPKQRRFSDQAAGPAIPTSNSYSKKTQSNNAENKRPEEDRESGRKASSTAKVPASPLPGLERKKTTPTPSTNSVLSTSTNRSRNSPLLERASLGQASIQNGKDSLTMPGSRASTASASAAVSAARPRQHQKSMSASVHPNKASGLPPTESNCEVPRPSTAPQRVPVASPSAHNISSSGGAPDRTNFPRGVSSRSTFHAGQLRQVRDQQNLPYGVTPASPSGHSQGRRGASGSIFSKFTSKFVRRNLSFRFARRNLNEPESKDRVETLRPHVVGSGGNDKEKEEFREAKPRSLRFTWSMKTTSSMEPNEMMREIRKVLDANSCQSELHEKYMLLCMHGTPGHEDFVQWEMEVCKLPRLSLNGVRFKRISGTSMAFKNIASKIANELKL

[41] = target: Macrophage-stimulating protein receptor (Homo sapiens) (UniProt Q04912); details: Compound concentration 1000.0 nM
[42] = target: Eukaryotic translation initiation factor 2-alpha kinase 1 (Homo sapiens) (UniProt Q9BQI3); details: Compound concentration 1000.0 nM
[43] = target: Vascular endothelial growth factor receptor 1 (Homo sapiens) (UniProt P17948); details: Compound concentration 1000.0 nM
[44] = target: Serine/threonine-protein kinase Nek7 (Homo sapiens) (UniProt Q8TDX7); details: Compound concentration 1000.0 nM
[45] = target: Mitogen-activated protein kinase kinase kinase kinase 2 (Homo sapiens) (UniProt Q12851); details: Compound concentration 1000.0 nM

Question: What does the source list for `O=C(NC[C@@H]1[C@H]2CN(C(=O)OCc3cc(C(F)(F)F)cc(C(F)(F)F)c3)C[C@@H]12)c1ccc2[nH]nnc2c1` [BI 2545]?
Answer: inhibition [1]: 41.5%; residual activity [2]: 79%; residual activity [3]: 87%; residual activity [4]: 100%; residual activity [5]: 86%; residual activity [6]: 90%; residual activity [7]: 100%; residual activity [8]: 98%; residual activity [9]: 100%; residual activity [10]: 84%; residual activity [11]: 100%; inhibition [12]: 33.2%; residual activity [13]: 97%; residual activity [14]: 82%; residual activity [15]: 100%; residual activity [16]: 44%; residual activity [17]: 94%; residual activity [18]: 100%; residual activity [19]: 100%; inhibition [20]: 28.1%; residual activity [21]: 88%; residual activity [22]: 100%; inhibition [23]: 19%; residual activity [24]: 100%; residual activity [25]: 99%; residual activity [26]: 86%; residual activity [27]: 100%; residual activity [28]: 100%; inhibition [29]: 44.9%; residual activity [30]: 100%; residual activity [31]: 98%; residual activity [32]: 90%; residual activity [33]: 95%; residual activity [34]: 85%; residual activity [35]: 100%; residual activity [36]: 83%; residual activity [37]: 86%; residual activity [38]: 99%; residual activity [39]: 100%; residual activity [40]: 89%; residual activity [41]: 100%; residual activity [42]: 91%; residual activity [43]: 82%; residual activity [44]: 83%; residual activity [45]: 92%

Question: What does the source list for `Cc1nccc(COC(=O)N2C[C@@H]3[C@@H](CNC(=O)c4ccc5[nH]nnc5c4)[C@@H]3C2)n1` [BI 3017]?
Answer: inhibition [1]: 31.1%; residual activity [2]: 92%; residual activity [3]: 99%; residual activity [4]: 86%; residual activity [5]: 80%; residual activity [6]: 84%; residual activity [7]: 83%; residual activity [8]: 100%; residual activity [9]: 100%; residual activity [10]: 81%; residual activity [11]: 96%; inhibition [12]: 13.2%; residual activity [13]: 100%; residual activity [14]: 90%; residual activity [15]: 100%; residual activity [16]: 100%; residual activity [17]: 98%; residual activity [18]: 95%; residual activity [19]: 86%; inhibition [20]: -0.15%; residual activity [21]: 93%; residual activity [22]: 100%; inhibition [23]: 3.82%; residual activity [24]: 100%; residual activity [25]: 82%; residual activity [26]: 99%; residual activity [27]: 93%; residual activity [28]: 100%; inhibition [29]: -2.9%; residual activity [30]: 88%; residual activity [31]: 81%; residual activity [32]: 82%; residual activity [33]: 80%; residual activity [34]: 82%; residual activity [35]: 100%; residual activity [36]: 100%; residual activity [37]: 100%; residual activity [38]: 82%; residual activity [39]: 94%; residual activity [40]: 97%; residual activity [41]: 100%; residual activity [42]: 100%; residual activity [43]: 100%; residual activity [44]: 100%; residual activity [45]: 84%
